Results published in ChEMBL document CHEMBL5154787 (J Med Chem, 2022).
pIC50, pKi: −log10 of the molar value.

Tests used:
[1] = target: AP2-associated protein kinase 1 (Mus musculus, UniProt Q3UHJ0); assay: Displacement of 3H-LP-927443 from AAK1 in C57BL6 mouse brain homogenate assessed as inhibition constant incubated for 1 hr by liquid scintillation counter analysis; type: tissue-based
[2] = Metabolic stability in rat liver microsomes assessed as parent compound remaining at 0.5 uM incubated for 10 mins in presence of NADPH by LC-MS/MS analysis; type: ADME, Microsome; conditions: read-out: Stability
Cytochrome P450 3A4 [3] = target: T1, Cytochrome P450 3A4 (Homo sapiens, UniProt P08684); assay: Inhibition of CYP3A4 (unknown origin) incubated for 10 mins in presence of NADPH by LC-MS/MS analysis; type: ADME
[4] = Half life in rat at 3 mg/kg, po or 2 mg/kg, iv; type: ADME, organism-based; conditions: in vivo
[5] = Total body clearance in rat at 3 mg/kg, po or 2 mg/kg, iv; type: ADME, organism-based; conditions: in vivo, read-out: CLt/F
Rattus norvegicus = assay: Analgesic activity in CCI induced tactile allodynia in Sprague-Dawley rat assessed as reduction in pain response at 3 mg/kg, po by Hargreaves test relative to control; type: functional; set-up: scale not given: the % may be the effect or the level left
[6] = Plasma concentration in CCI induced tactile allodynia in Sprague-Dawley rat at 3 mg/kg, po measured at 7.5 hrs post dose; type: ADME, organism-based
[7] = Drug concentration in CCI induced tactile allodynia in Sprague-Dawley rat spinal cord at 3 mg/kg, po measured at 7.5 hrs post dose; type: ADME, organism-based; conditions: read-out: Ct
[8] = Ratio of drug concentration in spinal cord to plasma in CCI induced tactile allodynia in Sprague-Dawley rat at 3 mg/kg, po measured at 7.5 hrs post dose; type: ADME, organism-based
[9] = Permeability of compound at pH 5.5 incubated for 4 hrs by PAMPA assay; type: ADME; conditions: read-out: permeability
[10] = Permeability across apical to basolateral side in human Caco-2 cells; type: ADME, cell-based; conditions: read-out: permeability
[11] = Protein binding in rat plasma assessed as unbound fraction measured after 3 hrs by LC/MS/MS analysis; type: ADME, cell-free
[12] = Protein binding in mouse plasma assessed as unbound fraction measured after 3 hrs by LC/MS/MS analysis; type: ADME, cell-free
[13] = Metabolic stability in human liver microsomes assessed as half life incubated at 0.5 uM for 10 mins in presence of NADPH by LC-MS/MS analysis; type: ADME, Microsome
Cytochrome P450 1A2 = target: T2, Cytochrome P450 1A2 (Homo sapiens, UniProt P05177); assay: Inhibition of CYP1A2 (unknown origin) incubated for 10 mins in presence of NADPH by LC-MS/MS analysis; type: ADME
T2 sequence (P05177 whole entry): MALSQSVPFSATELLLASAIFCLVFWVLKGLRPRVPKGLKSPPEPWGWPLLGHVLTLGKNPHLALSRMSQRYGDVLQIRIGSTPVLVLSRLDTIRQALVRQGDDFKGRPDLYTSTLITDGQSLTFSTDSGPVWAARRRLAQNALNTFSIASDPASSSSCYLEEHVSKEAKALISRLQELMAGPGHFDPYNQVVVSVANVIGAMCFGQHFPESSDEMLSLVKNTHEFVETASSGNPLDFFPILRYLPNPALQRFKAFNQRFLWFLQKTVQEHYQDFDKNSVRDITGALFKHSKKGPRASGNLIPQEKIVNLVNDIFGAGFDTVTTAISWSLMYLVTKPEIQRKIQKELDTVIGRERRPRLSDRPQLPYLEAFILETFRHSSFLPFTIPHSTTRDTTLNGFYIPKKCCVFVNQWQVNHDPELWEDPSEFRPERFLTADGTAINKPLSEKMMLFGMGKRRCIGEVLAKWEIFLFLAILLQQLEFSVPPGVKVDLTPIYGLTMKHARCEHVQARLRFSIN

Cytochrome P450 2C9 = Cytochrome P450 2C9 (Homo sapiens, UniProt P11712); assay: Inhibition of CYP2C9 (unknown origin) incubated for 10 mins in presence of NADPH by LC-MS/MS analysis; type: ADME
Cytochrome P450 3A4 [14] = target: T1, Cytochrome P450 3A4; assay: Time dependent inhibition of […] (unknown origin) using BFC as substrate incubated for 5 mins in presence of NADPH by LC-MS/MS analysis; type: ADME
Cytochrome P450 3A4 [15] = target: T1, Cytochrome P450 3A4; assay: Time dependent inhibition of […] (unknown origin) using BFC as substrate incubated for 30 mins in presence of NADPH by LC-MS/MS analysis; type: ADME
Cytochrome P450 3A4 [16] = target: T1, Cytochrome P450 3A4; assay: Time dependent inhibition of […] (unknown origin) using MDZ as substrate incubated for up to 30 mins in presence of NADPH by LC-MS/MS analysis; type: ADME
Cytochrome P450 3A4 [17] = target: T1, Cytochrome P450 3A4; assay: Time dependent inhibition of […] (unknown origin) using TST as substrate incubated for up to 30 mins in presence of NADPH by LC-MS/MS analysis; type: ADME
[18] = Inhibition of calcium channel (unknown origin); set-up: species or system Homo sapiens
[19] = target: Sodium-dependent noradrenaline transporter (Homo sapiens, UniProt P23975); assay: Inhibition of NET (unknown origin); type: toxicity
[20] = target: Neuronal acetylcholine receptor subunit alpha-7 (Homo sapiens, UniProt P36544); assay: Inhibition of nicotinic acetylcholine receptor alpha 7 (unknown origin); type: toxicity
[21] = target: BMP-2-inducible protein kinase (Homo sapiens, UniProt Q9NSY1); assay: Inhibition of BIKE (unknown origin)
[22] = Cardiotoxicity in aortic ring (unknown origin) assessed as relaxation of phenylephrine induced aortic ring contraction at 10 uM incubated for 1 hr; type: toxicity, tissue-based, Aorta; set-up: scale not given: the % may be the effect or the level left; conditions: human
[23] = Drug concentration in STZ-induced diabetic peripheral neuropathic mechanical allodynia in overnight fasted Sprague-Dawley rat spinal cord at 1 mg/kg, po measured at 5.75 hrs post dose; type: ADME, organism-based; conditions: read-out: Ct
[24] = Chemical stability of the compound assessed as remaining product at pH 7.4 measured after 22 hrs; type: physicochemical; conditions: buffer, read-out: Stability
[25] = Genotoxicity in Salmonella typhimurium by Ames test; type: toxicity; conditions: salmonella enterica subsp. enterica serovar typhimurium
[26] = Solubility of compound in FaSSIF incubated for 24 hrs; type: physicochemical
[27] = Plasma concentration in STZ-induced diabetic peripheral neuropathic mechanical allodynia in overnight fasted Sprague-Dawley rat at 1 mg/kg, po measured at 5.75 hrs post dose; type: ADME, organism-based
[28] = Ratio of drug concentration in spinal cord to plasma in STZ-induced diabetic peripheral neuropathic mechanical allodynia in overnight fasted Sprague-Dawley rat at 1 mg/kg, po measured at 5.75 hrs post dose; type: ADME, organism-based
[29] = target: Voltage-gated inwardly rectifying potassium channel KCNH2 (Homo sapiens, UniProt Q12809); assay: Inhibition of human ERG by patch clamp assay; type: toxicity
[30] = target: MAP kinase-interacting serine/threonine-protein kinase 1 (Homo sapiens, UniProt Q9BUB5); assay: Inhibition of MNK1 (unknown origin)
[31] = target: Myosin light chain kinase 2, skeletal/cardiac muscle (Homo sapiens, UniProt Q9H1R3); assay: Inhibition of MYLK2 (unknown origin)
[32] = target: Solute carrier organic anion transporter family member 1B1 (Homo sapiens, UniProt Q9Y6L6); assay: Inhibition of OATP1B1 (unknown origin)
[33] = target: Solute carrier family 22 member 6 (Homo sapiens, UniProt Q4U2R8); assay: Inhibition of OAT1 (unknown origin)
[34] = Drug concentration in rat spinal cord at 3 mg/kg, po measured after 4 hrs; type: ADME, organism-based; conditions: read-out: Ct

AP2-associated protein kinase 1, sequence (Q3UHJ0 whole entry): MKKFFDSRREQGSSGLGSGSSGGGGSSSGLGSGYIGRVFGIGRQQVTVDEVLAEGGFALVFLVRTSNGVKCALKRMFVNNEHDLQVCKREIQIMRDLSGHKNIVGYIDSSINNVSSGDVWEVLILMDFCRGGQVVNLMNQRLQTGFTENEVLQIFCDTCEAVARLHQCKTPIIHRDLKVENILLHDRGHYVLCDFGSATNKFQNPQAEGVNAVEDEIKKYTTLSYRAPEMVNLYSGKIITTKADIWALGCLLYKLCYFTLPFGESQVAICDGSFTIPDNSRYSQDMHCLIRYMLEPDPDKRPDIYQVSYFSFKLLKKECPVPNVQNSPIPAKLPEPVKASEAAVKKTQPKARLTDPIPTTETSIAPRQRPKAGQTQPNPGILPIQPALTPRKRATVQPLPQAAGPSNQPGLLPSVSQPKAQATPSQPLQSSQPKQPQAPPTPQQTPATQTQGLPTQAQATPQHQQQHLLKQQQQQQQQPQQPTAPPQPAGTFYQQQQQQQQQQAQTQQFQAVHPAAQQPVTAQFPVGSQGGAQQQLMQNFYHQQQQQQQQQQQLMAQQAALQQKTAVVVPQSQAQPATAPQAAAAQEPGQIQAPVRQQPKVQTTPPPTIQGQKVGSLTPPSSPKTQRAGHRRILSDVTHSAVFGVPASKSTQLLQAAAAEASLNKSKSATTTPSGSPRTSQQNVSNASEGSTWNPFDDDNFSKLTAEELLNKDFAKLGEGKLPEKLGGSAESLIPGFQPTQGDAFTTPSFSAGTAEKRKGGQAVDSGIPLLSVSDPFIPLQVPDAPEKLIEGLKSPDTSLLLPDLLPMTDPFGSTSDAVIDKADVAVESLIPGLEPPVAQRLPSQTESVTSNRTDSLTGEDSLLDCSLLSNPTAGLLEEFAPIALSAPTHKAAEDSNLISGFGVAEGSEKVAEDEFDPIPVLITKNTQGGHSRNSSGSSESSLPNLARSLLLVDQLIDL
T1 sequence (P08684 whole entry): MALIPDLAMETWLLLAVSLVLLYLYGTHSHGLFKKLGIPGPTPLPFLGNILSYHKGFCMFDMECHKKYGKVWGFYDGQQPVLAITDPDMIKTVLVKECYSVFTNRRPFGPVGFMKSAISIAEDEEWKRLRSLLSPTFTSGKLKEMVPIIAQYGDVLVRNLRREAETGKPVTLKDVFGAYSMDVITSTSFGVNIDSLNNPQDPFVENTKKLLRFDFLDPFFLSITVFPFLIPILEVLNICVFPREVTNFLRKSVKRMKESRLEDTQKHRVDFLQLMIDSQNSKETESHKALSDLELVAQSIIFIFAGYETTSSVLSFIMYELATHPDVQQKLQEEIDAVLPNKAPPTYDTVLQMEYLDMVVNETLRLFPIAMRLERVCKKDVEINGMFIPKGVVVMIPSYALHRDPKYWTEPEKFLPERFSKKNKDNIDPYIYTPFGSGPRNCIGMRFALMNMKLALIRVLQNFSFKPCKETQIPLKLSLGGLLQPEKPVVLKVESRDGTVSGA
BMP-2-inducible protein kinase, sequence (Q9NSY1 whole entry): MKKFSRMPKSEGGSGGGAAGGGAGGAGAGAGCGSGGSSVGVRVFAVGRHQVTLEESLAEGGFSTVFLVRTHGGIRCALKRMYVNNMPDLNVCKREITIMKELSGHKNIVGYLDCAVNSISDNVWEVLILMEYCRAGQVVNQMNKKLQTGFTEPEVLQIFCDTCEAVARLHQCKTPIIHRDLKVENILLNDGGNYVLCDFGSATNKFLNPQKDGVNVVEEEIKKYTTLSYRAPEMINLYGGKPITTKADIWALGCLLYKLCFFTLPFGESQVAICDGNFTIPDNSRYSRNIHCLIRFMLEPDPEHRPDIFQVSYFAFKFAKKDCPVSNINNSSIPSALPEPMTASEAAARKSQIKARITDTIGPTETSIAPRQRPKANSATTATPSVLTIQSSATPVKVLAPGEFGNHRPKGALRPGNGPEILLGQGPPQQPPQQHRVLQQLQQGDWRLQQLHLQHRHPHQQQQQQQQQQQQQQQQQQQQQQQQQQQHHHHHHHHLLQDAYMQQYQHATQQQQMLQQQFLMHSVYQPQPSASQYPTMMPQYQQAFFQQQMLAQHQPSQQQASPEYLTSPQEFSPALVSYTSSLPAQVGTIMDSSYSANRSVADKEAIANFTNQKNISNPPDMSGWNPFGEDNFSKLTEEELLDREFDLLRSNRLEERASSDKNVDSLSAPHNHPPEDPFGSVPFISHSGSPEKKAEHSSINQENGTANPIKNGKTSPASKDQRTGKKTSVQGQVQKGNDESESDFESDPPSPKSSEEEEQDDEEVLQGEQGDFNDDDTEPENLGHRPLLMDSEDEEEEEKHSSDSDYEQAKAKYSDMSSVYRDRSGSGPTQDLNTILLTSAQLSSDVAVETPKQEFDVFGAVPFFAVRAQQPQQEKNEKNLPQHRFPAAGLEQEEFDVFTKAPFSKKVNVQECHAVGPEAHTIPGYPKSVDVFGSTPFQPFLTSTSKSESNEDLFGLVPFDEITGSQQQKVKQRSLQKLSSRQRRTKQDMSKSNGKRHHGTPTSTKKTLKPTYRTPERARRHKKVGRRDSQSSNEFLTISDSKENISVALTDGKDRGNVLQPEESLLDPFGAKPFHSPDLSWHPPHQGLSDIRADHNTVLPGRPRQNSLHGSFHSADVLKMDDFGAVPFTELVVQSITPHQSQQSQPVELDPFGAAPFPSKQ
Cytochrome P450 2C9, sequence (P11712 whole entry): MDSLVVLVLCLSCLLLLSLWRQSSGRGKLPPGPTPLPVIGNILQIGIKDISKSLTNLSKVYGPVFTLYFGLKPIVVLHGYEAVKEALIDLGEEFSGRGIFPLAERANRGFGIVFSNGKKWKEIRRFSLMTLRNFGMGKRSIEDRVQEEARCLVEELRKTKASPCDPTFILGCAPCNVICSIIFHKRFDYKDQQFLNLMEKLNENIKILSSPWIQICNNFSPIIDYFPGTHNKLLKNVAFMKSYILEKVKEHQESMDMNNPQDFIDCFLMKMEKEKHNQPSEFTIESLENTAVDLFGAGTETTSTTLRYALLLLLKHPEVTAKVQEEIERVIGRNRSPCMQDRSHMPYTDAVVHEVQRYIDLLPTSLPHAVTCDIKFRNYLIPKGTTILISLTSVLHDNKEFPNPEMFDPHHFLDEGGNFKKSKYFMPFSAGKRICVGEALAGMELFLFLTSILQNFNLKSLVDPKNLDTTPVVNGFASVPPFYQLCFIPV
MAP kinase-interacting serine/threonine-protein kinase 1, sequence (Q9BUB5 whole entry): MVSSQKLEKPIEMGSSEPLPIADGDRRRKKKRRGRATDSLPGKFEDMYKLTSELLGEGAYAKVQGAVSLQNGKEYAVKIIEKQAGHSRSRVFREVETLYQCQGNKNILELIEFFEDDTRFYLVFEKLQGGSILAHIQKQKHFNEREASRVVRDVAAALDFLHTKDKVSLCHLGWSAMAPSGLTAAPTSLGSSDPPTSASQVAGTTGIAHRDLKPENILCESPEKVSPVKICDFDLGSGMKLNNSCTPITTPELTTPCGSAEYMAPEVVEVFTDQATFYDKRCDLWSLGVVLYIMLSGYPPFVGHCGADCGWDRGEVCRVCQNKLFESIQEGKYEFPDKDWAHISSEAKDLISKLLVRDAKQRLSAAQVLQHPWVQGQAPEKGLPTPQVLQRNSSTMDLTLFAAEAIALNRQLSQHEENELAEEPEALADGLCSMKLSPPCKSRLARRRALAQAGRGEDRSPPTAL
Neuronal acetylcholine receptor subunit alpha-7, sequence (P36544 whole entry): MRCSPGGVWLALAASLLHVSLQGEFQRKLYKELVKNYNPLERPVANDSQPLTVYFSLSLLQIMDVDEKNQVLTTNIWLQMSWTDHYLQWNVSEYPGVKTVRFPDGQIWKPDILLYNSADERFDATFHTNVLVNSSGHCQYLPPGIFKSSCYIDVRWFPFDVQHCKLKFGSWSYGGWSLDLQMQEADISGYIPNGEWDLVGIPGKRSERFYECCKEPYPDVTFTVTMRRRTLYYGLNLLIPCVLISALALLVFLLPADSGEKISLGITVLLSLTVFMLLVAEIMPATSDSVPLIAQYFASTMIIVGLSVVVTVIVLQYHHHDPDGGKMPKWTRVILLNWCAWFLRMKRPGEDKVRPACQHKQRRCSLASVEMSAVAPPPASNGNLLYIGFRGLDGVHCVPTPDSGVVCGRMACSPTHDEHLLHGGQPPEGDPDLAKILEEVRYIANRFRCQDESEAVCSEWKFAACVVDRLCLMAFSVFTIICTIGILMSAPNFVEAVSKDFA
Myosin light chain kinase 2, skeletal/cardiac muscle, sequence (Q9H1R3 whole entry): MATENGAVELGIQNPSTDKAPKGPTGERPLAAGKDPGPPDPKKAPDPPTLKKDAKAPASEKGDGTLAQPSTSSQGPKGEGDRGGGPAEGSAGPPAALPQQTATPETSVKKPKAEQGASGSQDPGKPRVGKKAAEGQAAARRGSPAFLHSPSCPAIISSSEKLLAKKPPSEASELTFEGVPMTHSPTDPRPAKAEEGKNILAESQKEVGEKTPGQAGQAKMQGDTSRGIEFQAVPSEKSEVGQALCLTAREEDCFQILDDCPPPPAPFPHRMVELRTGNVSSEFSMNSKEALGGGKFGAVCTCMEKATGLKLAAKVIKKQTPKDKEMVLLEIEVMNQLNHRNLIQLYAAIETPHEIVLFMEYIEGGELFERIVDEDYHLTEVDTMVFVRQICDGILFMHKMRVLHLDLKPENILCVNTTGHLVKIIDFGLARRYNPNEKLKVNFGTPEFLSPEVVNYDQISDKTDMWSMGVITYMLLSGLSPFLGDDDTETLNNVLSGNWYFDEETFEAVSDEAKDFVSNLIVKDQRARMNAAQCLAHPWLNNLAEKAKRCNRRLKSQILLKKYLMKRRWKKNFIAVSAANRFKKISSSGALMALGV

| SMILES | pKi [1] | remaining at 10 min, 0.5 µM [2] [%] | pIC50 (Cytochrome P450 3A4 [3]) | half-life [4] [h] | CL/F [5] [L/h/kg] | Activity (Rattus norvegicus) [%] | concentration at 7.5 h [6] [µM] | concentration at 7.5 h [7] [µM] | Kp at 7.5 h [8] | Papp at 4 h [9] [nm/s] | Papp A→B [10] [nm/s] | fraction unbound at 3 h [11] | fraction unbound at 3 h [12] | half-life at 0.5 µM [13] [h] | pIC50 (Cytochrome P450 1A2) | pIC50 (Cytochrome P450 2C9) | pIC50 (Cytochrome P450 3A4 [14]) | pIC50 [18] | pIC50 [21] | Activity [22] [%] | further results |
| --- | --- | --- | --- | --- | --- | --- | --- | --- | --- | --- | --- | --- | --- | --- | --- | --- | --- | --- | --- | --- | --- |
| COC(=O)Nc1cc(-c2cnc(OC[C@@](C)(N)CC(C)C)c(C)c2)ccn1 | 9.68 | 83 | < 4.70 | 7.55 | 3.82 | 60 | 0.14 | 0.72 | 5.1 | 565 | 172 | 0.105 | 0.049 | > 2 | < 4.70 | < 4.70 | < 4.70 | 4.45 | 8.00 | 66 | pIC50 (Cytochrome P450 3A4 [15]): < 4.70; pIC50 (Cytochrome P450 3A4 [16]): < 4.40; pIC50 (Cytochrome P450 3A4 [17]): < 4.40; pIC50 [19]: 5.30; pIC50 [20]: 5.35 |
| COC(=O)Nc1cc(-c2ccc(OC[C@@](C)(N)CC(C)C)c(C)n2)ccn1 | 9.54 | 95 | < 4.70 | 11.3 | 1.04 | 80 | 0.5 | 4.4 | 8.8 | 824 | 357 | 0.225 | – | > 2 | < 4.70 | < 4.70 | – | 4.80 | 7.05 | 36 | concentration at 5.75 h [23]: 0.213 µM; remaining at 22 h [24]: 100%; Activity [25]: Non-Toxic; solubility at 24 h [26]: > 1 mg/mL; concentration at 5.75 h [27]: 0.08 µM; Kp at 5.75 h [28]: 2.7; pIC50 [29]: 5.23; pIC50 [30]: 6.72; pIC50 [31]: 5.74 |
| CC(C)C[C@](C)(N)COc1cnc(-c2ccnc(C(F)F)c2)cc1C(F)F | 10.30 | 85 | < 4.70 | 5.02 | 7.14 | – | – | – | – | 406 | 235 | 0.122 | 0.065 | > 2 | < 4.70 | < 4.70 | < 4.70 | 4.73 | 6.74 | 58 | concentration at 5.75 h [23]: 0.213 µM; Activity [25]: Non-Toxic; concentration at 5.75 h [27]: 0.08 µM; Kp at 5.75 h [28]: 2.7; pIC50 (Cytochrome P450 3A4 [15]): < 4.70; pIC50 (Cytochrome P450 3A4 [16]): < 4.40; pIC50 (Cytochrome P450 3A4 [17]): < 4.40; pIC50 [29]: 5.89; pIC50 [19]: 5.74; pIC50 [20]: 5.40; pIC50 [32]: < 4.30; pIC50 [33]: < 4.30; concentration at 4 h [34]: 0.825 µM; pIC50 [30]: 6.59; pIC50 [31]: 6.35 |
